Results taken from PubChem BioAssay (NCI).
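Each compound was tested at five concentrations against cells in 96-well plates for 48 hours. Here, GI50 denotes the concentration required for 50% inhibition of growth. TGI marks complete inhibition of growth.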

Columns and labels:
Test in all cases: DTP human tumour cell line panel, 48 h
[1] = test system: RXF 393 renal
[2] = test system: SR leukemia
[3] = test system: UACC-62 melanoma
[4] = test system: SF-268 CNS
[5] = test system: SK-MEL-2 melanoma
[6] = test system: EKVX NSCLC
[7] = test system: SK-OV-3 ovarian
[8] = test system: HS 578T breast
[9] = test system: DU-145 prostate
[10] = test system: MDA-MB-435

SMILES	TGI [1]	TGI [2]	TGI [3]	TGI [4]	TGI [5]	TGI [6]	GI50 [1]	GI50 [2]	GI50 [3]	GI50 [4]	GI50 [7]	TGI [7]	GI50 [8]	TGI [8]	GI50 [9]	TGI [9]	GI50 [5]	GI50 [6]	GI50 [10]	TGI [10]
CN(C)C(=S)/N=c1\ss/c(=N\C(=S)N(C)C)n1-c1cccc(Cl)c1	> 100 µM	> 100 µM	> 100 µM	> 100 µM	> 100 µM	> 100 µM	–	–	–	–	–	–	–	–	–	–	–	–	–	–
COc1ccc(-c2ccc(OC)c(OC)c2OC)cc1	> 100 µM	> 100 µM	> 100 µM	> 100 µM	> 100 µM	> 100 µM	2.83 µM	0.572 µM	3.29 µM	9.28 µM	2.63 µM	62 µM	1.82 µM	> 23.1 µM	2.83 µM	19.3 µM	3.8 µM	4.1 µM	0.239 µM	0.833 µM
COc1ccc(-c2nc3ccccc3s2)cc1OC	–	> 100 µM	> 100 µM	–	> 100 µM	–	–	–	–	–	–	62.9 µM	–	> 100 µM	–	–	–	–	–	> 100 µM
O=C(CC1=Nc2nnc(CCCCCCCc3nnc4n3C(=O)C(CC(=O)c3ccc5ccccc5c3)=N4)n2C1=O)c1ccc2ccccc2c1	> 100 µM	> 100 µM	> 100 µM	> 100 µM	> 100 µM	> 100 µM	–	–	–	–	–	> 100 µM	–	–	–	–	–	–	–	–
CCCC(=O)O[C@]1(C)CC[C@@H]2[C@H]3[C@@H]1[C@@H]1C[C@@](C)(O)[C@H](OC)CC[C@](C)(OC(=O)[C@@H]2C)[C@H]3O1	72.9 µM	28.1 µM	–	> 100 µM	> 100 µM	> 100 µM	23.2 µM	14.9 µM	–	38.6 µM	31 µM	97.1 µM	28.8 µM	72.7 µM	43.4 µM	> 100 µM	65.7 µM	47.3 µM	34.3 µM	> 100 µM
COC(=O)C1CC(c2ccc(OC)c(OC)c2)OC1=O (mixture of isomers)	> 100 µM	> 100 µM	> 100 µM	> 100 µM	–	> 100 µM	–	–	–	–	–	> 100 µM	–	–	–	–	–	–	–	–
Cc1cccc(N2C(=O)/C(=C/C(Cl)=C/c3ccc([N+](=O)[O-])cc3)SC2=S)c1C	3.52 µM	> 100 µM	3.86 µM	–	> 100 µM	> 100 µM	1.63 µM	0.404 µM	1.7 µM	–	4.93 µM	> 100 µM	2.8 µM	> 100 µM	3.98 µM	> 100 µM	3.85 µM	2.73 µM	–	–
COc1ccc(-n2cc(-c3ccc(OC)c(OC)c3)[nH]c2=O)cc1	–	> 100 µM	> 100 µM	> 100 µM	> 100 µM	> 100 µM	–	> 100 µM	> 100 µM	> 100 µM	> 100 µM	> 100 µM	> 100 µM	> 100 µM	> 100 µM	> 100 µM	> 100 µM	> 100 µM	> 100 µM	> 100 µM
O=S(=O)(NC1=NCCN1C(=S)SN1CCn2c1nsc2=S)c1ccc(Cl)cc1	34.4 µM	6.51 µM	13.6 µM	28 µM	22.7 µM	30.6 µM	3.09 µM	2.4 µM	3.68 µM	6.5 µM	–	–	14 µM	75.2 µM	7.9 µM	30.9 µM	5.93 µM	13.2 µM	3.02 µM	10.5 µM
COc1cc(N2C(=O)[C@H](Cl)C2c2ccc(SC)cc2)cc(OC)c1OC (stereo partly specified)	> 100 µM	> 100 µM	91.5 µM	> 100 µM	> 100 µM	> 100 µM	0.0385 µM	0.0473 µM	0.0712 µM	0.0841 µM	0.588 µM	> 100 µM	0.101 µM	> 100 µM	0.168 µM	> 100 µM	0.3 µM	0.209 µM	–	–
c1ccc2c(c1)[nH]c1c2nc2ccccn21	> 100 µM	> 100 µM	> 100 µM	> 100 µM	> 100 µM	> 100 µM	–	–	–	–	–	> 100 µM	–	–	–	–	–	–	–	–
CC(=O)[CH-]C(C)=O.CC(=O)[CH-]C(C)=O.[O-]c1ccccc1.[O-]c1ccccc1.[Ti+4]	–	> 100 µM	> 100 µM	> 100 µM	> 100 µM	> 100 µM	–	> 100 µM	> 100 µM	> 100 µM	> 100 µM	> 100 µM	–	–	–	–	> 100 µM	> 100 µM	–	–
O=c1[nH]c(C2CCCN2)nc2c1oc1ccc(Cl)cc12 (stereo unspecified)	> 100 µM	> 100 µM	> 100 µM	> 100 µM	> 100 µM	–	> 70.2 µM	61.1 µM	98.8 µM	> 100 µM	> 100 µM	> 100 µM	28.3 µM	> 100 µM	> 100 µM	> 100 µM	> 100 µM	–	> 100 µM	> 100 µM
Cn1c(=O)oc2cc(C3CCC(=O)N3Cc3csc(-c4ccccc4)n3)ccc21 (stereo unspecified)	> 100 µM	> 100 µM	> 100 µM	> 100 µM	> 100 µM	> 100 µM	–	–	–	–	–	> 100 µM	–	–	–	–	–	–	–	–
COc1ccc(-c2ccc(C3CC(c4ccccc4)=NN3)o2)c([N+](=O)[O-])c1 (stereo unspecified)	> 100 µM	87.9 µM	> 100 µM	> 100 µM	–	> 100 µM	40 µM	30.3 µM	67.7 µM	37.8 µM	42.5 µM	> 100 µM	43 µM	> 100 µM	82.6 µM	> 100 µM	–	49.2 µM	32.4 µM	> 100 µM
CC(=O)N1[C@H](C(=O)O)CS[C@H]1c1ccc(F)cc1	> 100 µM	> 100 µM	–	> 100 µM	–	–	–	–	–	–	–	–	–	–	–	–	–	–	–	–
CC(C)(C)C#COC(=O)c1ccccc1	–	> 100 µM	> 100 µM	> 100 µM	> 100 µM	> 100 µM	–	–	–	–	–	> 100 µM	–	–	–	–	–	–	–	–
O=c1c2cccnc2ncn1CCCN1CCCCC1	> 100 µM	> 100 µM	> 100 µM	> 100 µM	> 100 µM	> 100 µM	–	–	–	–	–	> 100 µM	–	–	–	–	–	–	–	–
